Reference: PubChem BioAssay (NCI)
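Exposure lasted 48 hours, with cells grown in 96-well plates and compounds tested at five concentrations. Abbreviation: GI50, concentration required for 50% inhibition of growth. TGI: concentration producing complete growth inhibition.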

Columns and labels:
Assay in all cases: NCI-60 cell line screen, 48 h
[1] = tested on: KM12 colon
[2] = tested on: HCT-116 colon
[3] = tested on: NCI-H522 lung
[4] = tested on: UO-31 renal
[5] = tested on: OVCAR-3 ovarian
[6] = tested on: OVCAR-5 ovarian
[7] = tested on: RPMI-8226 leukemia
[8] = tested on: K-562 leukemia
[9] = tested on: SNB-19 CNS
[10] = tested on: SR leukemia

| SMILES | GI50 [1] [µM] | TGI [1] [µM] | GI50 [2] [µM] | TGI [2] [µM] | GI50 [3] [µM] | TGI [3] [µM] | GI50 [4] [µM] | TGI [4] [µM] | GI50 [5] [µM] | TGI [5] [µM] | GI50 [6] [µM] | TGI [6] [µM] | GI50 [7] [µM] | TGI [7] [µM] | GI50 [8] [µM] | TGI [8] [µM] | GI50 [9] [µM] | TGI [9] [µM] | GI50 [10] [µM] | TGI [10] [µM] |
| --- | --- | --- | --- | --- | --- | --- | --- | --- | --- | --- | --- | --- | --- | --- | --- | --- | --- | --- | --- | --- |
| CCN1CCN(c2cc(C)nc(N(CCCNc3ccnc4cc(Cl)ccc34)Cc3ccc4c(c3)OCO4)n2)CC1 | 4.14 | > 100 | 2.45 | 13.6 | 2.03 | 4.76 | 1.51 | 3.08 | 2.35 | 6.09 | 5.32 | > 100 | 1.8 | 4.49 | 1.91 | 7.86 | 4.16 | 52 |  |  |
| C#CCNC(=O)ON1C(=O)CCC1=O |  | > 100 |  | > 100 |  | > 100 |  | > 100 |  | > 100 |  | > 100 |  | > 100 |  | > 100 |  | > 100 |  |  |
| COc1ccc(NC(=O)/C=C(C)/C=C/C=C(C)/C=C/C2=C(C)CCCC2(C)C)cc1 | 4.4 | 14.5 | 2.43 | 6.99 |  |  | 10.8 | 25.4 | 2.64 | 5.9 | 15.9 | 30.7 | 2.33 | 7.76 | 2.41 | 7.23 | 14.7 | 28.1 | 1.98 | 11.9 |
| COc1ccc(-c2cc(C(=O)Nc3cc(C(F)(F)F)cc(C(F)(F)F)c3)c3ccccc3n2)cc1 |  | 35.1 |  | 18.6 |  |  |  | > 100 |  | 15.5 |  | > 100 |  | > 100 |  | > 100 |  |  |  | 38.5 |
| O=c1nc(-c2ccccc2)cc(CC(O)c2ccc(Cl)c(Cl)c2)[nH]1 (stereo not given) |  | > 100 |  | > 100 |  | 90.8 |  | 99.3 |  | > 100 |  | 82 |  |  |  | > 100 |  | > 100 |  |  |
| Cl/C(N=Nc1ccccc1)=N/Nc1ccccc1 |  | > 100 |  | > 100 |  | > 100 |  |  |  |  |  | > 100 |  |  |  | > 100 |  | > 100 |  | > 100 |
| [O-]c1ccccc1C=Nc1ccc2c(c1)CCC2.[O-]c1ccccc1C=Nc1ccc2c(c1)CCC2.[O]=[U+2]=[O] | > 100 | > 100 | 13.5 | > 100 | > 100 | > 100 | 31.2 | > 100 | > 100 | > 100 | > 100 | > 100 | 16.5 | > 100 | 11.8 | > 100 | 27.9 | > 100 |  |  |
| O=C(Nc1ccc(F)cc1F)c1cc(Cl)ccc1O | 2.31 | 7.68 | 1.23 | 3.31 | 0.974 | 10.8 | 1.15 | 6.18 | 0.955 | 16.8 | 4.4 | > 100 | 0.689 | 3.83 |  |  | 1.45 | > 100 |  |  |
| CNc1ccc2ncccc2c1[N+](=O)[O-] |  | > 100 |  | > 100 |  |  |  | > 100 |  | > 100 |  | > 100 |  | > 100 |  | > 100 |  | > 100 |  | > 100 |
| COC(=O)C1C(=O)CC2CCCCC21 (stereo not given) |  | > 100 |  | > 100 |  | > 100 |  | > 100 |  | > 100 |  |  |  | > 100 |  | > 100 |  | > 100 |  | > 100 |
